From US10800741B2 (ANCUREALL PHARMACEUTICAL (SHANGHAI) CO., LTD., priority 2017, dated 2020)
Like-named read-outs stand apart in the source and are kept apart here.

How the values were obtained:
Test in all cases: KINOMEscan in vitro binding to 468 labeled protein kinases
protein kinases [1] = target: T1, protein kinases (Homo sapiens, UniProt Q02763); conditions: TIE2, read-out: Test compound/solvent control (%)
T1 construct: purchased Discovery X company (USA), KINOMEscan screening platform
Method in brief: (§1)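 Duplicate in vitro binding reactions at 1 nM, 10 nM and 1000 nM compound against a panel of 468 labelled protein kinases (KINOMEscan). Binding expressed relative to solvent control as a percentage, stronger affinity giving a lower value.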

protein kinases [2] = target: T2, protein kinases (Homo sapiens, UniProt P22607, G697C); conditions: FGFR3(G697C), read-out: Test compound/solvent control (%)
T2 construct: purchased Discovery X company (USA), KINOMEscan screening platform
Method in brief: as §1

protein kinases [3] = target: T3, protein kinases (Homo sapiens, UniProt P11362); conditions: FGFR1, read-out: Test compound/solvent control (%)
T3 construct: purchased Discovery X company (USA), KINOMEscan screening platform
Method in brief: as §1

protein kinases [4] = target: T4, protein kinases (Homo sapiens, UniProt Q16620); conditions: TRKB (NTRK2), read-out: Test compound/solvent control (%)
T4 construct: purchased Discovery X company (USA), KINOMEscan screening platform
Method in brief: as §1

protein kinases [5] = target: T5, protein kinases (Homo sapiens, UniProt P00533, L858R/T790M); conditions: EGFR(L858R,T790M)
T5 construct: purchased Discovery X company (USA), KINOMEscan screening platform
Method in brief: as §1

protein kinases [6] = test system: protein kinases
Method in brief: as §1

protein kinases [7] = target: T6, protein kinases (Homo sapiens, UniProt P00519, M351T); conditions: ABL1(M351T)-phosphorylated, read-out: Test compound/solvent control (%)
T6 construct: purchased Discovery X company (USA), KINOMEscan screening platform
Method in brief: as §1

protein kinases [8] = target: T7, protein kinases (Homo sapiens, UniProt P00533, T790M); conditions: EGFR(T790M)
T7 construct: purchased Discovery X company (USA), KINOMEscan screening platform
Method in brief: as §1

protein kinases [9] = target: T8, protein kinases (Homo sapiens, UniProt P00519, T315I); conditions: read-out: Test compound/solvent control (%); for remaining binding at 0.001 µM: 1 nM; for remaining binding at 0.01 µM: 10 nM; for remaining binding at 1 µM: 1000 nM
T8 construct: purchased Discovery X company (USA), KINOMEscan screening platform
Method in brief: as §1

protein kinases [10] = target: T9, protein kinases (Homo sapiens, UniProt P12931); conditions: SRC, read-out: Test compound/solvent control (%)
T9 construct: purchased Discovery X company (USA), KINOMEscan screening platform
Method in brief: as §1

protein kinases [11] = target: T10, protein kinases (Homo sapiens, UniProt P16234); conditions: PDGFRA, read-out: Test compound/solvent control (%)
T10 construct: purchased Discovery X company (USA), KINOMEscan screening platform
Method in brief: as §1

protein kinases [12] = target: T11, protein kinases (Homo sapiens, UniProt P10721); conditions: KIT, read-out: Test compound/solvent control (%)
T11 construct: purchased Discovery X company (USA), KINOMEscan screening platform
Method in brief: as §1

protein kinases [13] = target: T12, protein kinases (Homo sapiens, UniProt P22455); conditions: FGFR4, read-out: Test compound/solvent control (%)
T12 construct: purchased Discovery X company (USA), KINOMEscan screening platform
Method in brief: as §1

T9 sequence (P12931 whole entry): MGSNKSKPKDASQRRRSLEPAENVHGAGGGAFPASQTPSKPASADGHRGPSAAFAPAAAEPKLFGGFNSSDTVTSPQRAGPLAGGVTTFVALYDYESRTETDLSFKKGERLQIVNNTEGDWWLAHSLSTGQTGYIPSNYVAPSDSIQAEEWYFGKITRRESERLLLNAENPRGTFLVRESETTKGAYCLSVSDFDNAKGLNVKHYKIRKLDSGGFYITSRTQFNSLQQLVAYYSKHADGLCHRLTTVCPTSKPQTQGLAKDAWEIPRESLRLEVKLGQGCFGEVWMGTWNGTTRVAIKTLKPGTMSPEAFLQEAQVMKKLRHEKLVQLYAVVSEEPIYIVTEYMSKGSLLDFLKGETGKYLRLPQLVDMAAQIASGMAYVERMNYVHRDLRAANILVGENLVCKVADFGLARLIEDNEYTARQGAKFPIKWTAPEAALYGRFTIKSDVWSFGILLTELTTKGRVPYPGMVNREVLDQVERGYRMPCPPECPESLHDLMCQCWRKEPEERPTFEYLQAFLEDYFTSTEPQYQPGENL
T11 sequence (P10721 26-976): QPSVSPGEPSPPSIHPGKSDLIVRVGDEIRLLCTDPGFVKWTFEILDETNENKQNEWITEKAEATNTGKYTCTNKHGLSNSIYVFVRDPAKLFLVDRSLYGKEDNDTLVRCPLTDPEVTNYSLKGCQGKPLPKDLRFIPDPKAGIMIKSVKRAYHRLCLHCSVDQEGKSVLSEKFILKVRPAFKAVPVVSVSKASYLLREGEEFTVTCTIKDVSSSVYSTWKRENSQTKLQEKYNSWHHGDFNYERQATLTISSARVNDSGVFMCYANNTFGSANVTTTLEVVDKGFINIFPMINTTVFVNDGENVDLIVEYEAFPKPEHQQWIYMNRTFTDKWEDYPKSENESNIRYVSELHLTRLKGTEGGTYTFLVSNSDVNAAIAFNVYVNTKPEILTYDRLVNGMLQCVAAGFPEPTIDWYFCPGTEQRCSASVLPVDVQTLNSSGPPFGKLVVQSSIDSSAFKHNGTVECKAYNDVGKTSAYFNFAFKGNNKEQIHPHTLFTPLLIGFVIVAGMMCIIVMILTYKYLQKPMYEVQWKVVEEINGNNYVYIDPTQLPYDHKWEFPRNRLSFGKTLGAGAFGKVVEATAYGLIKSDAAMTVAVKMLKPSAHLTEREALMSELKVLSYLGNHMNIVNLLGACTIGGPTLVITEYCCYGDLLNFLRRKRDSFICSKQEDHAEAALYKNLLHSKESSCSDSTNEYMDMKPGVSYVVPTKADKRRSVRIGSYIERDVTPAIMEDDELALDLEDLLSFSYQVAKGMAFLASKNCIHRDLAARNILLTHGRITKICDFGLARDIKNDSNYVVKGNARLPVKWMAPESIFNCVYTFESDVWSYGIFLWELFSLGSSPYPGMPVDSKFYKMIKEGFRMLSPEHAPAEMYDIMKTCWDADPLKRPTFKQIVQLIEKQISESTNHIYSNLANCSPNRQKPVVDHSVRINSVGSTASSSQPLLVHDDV
T1 sequence (Q02763 23-1124): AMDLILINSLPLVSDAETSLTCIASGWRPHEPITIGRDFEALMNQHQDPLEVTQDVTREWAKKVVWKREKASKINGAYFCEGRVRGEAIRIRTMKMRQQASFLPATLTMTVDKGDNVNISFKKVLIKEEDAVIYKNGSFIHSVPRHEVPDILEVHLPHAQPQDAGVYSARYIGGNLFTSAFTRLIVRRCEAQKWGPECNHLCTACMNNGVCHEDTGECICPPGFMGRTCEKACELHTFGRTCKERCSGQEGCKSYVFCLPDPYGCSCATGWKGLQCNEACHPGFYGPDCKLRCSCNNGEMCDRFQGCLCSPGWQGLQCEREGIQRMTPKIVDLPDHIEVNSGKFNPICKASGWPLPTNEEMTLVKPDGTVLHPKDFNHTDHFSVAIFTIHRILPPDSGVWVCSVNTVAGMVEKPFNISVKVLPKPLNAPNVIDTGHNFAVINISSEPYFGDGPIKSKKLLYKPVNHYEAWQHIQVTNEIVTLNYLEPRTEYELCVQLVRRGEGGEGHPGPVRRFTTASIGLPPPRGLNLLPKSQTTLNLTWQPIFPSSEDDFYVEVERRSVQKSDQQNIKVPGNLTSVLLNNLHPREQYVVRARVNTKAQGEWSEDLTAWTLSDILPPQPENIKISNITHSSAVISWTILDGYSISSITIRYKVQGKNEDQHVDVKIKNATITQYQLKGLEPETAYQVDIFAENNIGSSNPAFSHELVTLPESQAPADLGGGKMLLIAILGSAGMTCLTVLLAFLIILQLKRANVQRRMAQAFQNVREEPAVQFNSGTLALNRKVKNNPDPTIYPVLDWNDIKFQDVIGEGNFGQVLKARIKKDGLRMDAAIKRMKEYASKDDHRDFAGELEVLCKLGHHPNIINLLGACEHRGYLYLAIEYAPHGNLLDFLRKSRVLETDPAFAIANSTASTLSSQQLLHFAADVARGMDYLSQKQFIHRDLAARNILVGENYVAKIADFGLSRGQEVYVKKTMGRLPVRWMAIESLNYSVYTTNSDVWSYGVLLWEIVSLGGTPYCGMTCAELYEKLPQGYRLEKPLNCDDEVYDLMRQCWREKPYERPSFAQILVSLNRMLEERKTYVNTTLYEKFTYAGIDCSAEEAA
T4 sequence (Q16620 32-822): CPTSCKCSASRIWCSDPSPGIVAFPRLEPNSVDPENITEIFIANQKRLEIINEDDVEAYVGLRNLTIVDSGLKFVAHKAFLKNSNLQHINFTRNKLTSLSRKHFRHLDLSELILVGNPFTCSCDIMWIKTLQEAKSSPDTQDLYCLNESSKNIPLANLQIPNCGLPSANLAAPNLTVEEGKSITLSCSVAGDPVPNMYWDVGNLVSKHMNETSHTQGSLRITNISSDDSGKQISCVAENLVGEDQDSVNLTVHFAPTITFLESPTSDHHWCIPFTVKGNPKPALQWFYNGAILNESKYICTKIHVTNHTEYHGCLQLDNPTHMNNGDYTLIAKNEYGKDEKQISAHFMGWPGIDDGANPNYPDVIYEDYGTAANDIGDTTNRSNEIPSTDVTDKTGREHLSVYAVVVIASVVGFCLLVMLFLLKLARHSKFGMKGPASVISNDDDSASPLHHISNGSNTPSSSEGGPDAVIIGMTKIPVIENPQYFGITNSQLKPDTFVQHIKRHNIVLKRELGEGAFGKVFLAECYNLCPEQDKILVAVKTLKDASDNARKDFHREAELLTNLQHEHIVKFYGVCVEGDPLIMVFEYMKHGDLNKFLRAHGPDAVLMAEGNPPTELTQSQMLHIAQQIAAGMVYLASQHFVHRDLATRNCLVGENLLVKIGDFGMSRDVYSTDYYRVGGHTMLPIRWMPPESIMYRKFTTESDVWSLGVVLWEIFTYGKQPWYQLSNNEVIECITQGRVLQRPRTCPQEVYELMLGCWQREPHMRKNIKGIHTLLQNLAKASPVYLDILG
T12 sequence (P22455 22-802): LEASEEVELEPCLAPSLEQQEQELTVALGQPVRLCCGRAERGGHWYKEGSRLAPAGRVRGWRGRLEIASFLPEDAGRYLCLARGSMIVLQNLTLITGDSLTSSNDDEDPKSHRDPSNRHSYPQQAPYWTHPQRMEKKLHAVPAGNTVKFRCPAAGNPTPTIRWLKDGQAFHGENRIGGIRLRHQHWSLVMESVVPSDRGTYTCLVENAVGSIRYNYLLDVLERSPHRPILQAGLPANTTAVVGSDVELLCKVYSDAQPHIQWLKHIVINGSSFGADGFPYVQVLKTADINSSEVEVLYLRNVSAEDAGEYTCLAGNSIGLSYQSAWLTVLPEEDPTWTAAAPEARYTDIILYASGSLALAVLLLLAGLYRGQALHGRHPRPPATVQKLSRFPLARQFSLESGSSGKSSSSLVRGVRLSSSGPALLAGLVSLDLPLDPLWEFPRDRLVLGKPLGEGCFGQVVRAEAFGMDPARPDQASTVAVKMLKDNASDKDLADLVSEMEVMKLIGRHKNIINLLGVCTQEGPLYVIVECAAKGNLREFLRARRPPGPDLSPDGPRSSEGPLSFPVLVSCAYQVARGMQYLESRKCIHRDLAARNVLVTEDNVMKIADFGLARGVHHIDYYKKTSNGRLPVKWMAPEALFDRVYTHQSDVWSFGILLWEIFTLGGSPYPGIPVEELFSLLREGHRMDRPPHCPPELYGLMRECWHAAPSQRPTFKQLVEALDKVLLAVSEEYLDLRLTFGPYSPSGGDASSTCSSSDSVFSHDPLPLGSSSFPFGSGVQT
T3 sequence (P11362 22-822): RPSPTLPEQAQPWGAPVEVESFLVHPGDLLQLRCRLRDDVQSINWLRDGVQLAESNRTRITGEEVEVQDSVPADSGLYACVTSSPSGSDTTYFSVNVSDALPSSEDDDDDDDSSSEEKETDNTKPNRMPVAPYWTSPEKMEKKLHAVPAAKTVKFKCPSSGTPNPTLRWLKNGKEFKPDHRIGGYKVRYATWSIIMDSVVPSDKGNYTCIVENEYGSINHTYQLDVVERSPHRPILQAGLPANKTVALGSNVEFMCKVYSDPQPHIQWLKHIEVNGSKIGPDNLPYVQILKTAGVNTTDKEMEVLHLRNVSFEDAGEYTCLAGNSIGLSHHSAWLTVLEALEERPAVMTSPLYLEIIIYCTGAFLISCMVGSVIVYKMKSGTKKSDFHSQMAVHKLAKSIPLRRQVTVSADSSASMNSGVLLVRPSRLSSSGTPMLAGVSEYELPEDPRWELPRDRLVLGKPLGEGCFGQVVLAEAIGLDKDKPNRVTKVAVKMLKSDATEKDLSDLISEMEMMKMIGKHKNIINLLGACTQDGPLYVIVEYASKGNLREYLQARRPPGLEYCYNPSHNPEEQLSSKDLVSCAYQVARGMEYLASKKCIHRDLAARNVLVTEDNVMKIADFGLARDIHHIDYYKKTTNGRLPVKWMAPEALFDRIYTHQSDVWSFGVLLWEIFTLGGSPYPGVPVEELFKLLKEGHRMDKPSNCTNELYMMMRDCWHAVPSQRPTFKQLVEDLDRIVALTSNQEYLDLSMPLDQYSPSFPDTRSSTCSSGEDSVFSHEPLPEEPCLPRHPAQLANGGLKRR

## COCCOc1cc2nccc(Oc3ccc(NC(=O)Nc4cc(C(C)(C)C)n[nH]4)c(Cl)c3)c2cc1NC(C)=O [Compound 66, N-[4-{4-[3-(5-tert-butyl-2H-pyrazol-3-yl)-ureido]-3-chloro-phenoxy}-7-(2-methoxy-ethoxy)-quinolin-6-yl]-acetamide]
Protein kinases [1]; 1 nM
  remaining binding at 0.001 µM: 59%
Protein kinases [1]; 10 nM
  remaining binding at 0.01 µM: 3.8%
Protein kinases [1]; 1000 nM
  remaining binding at 1 µM: 0.95%
Protein kinases [2]; 1 nM
  remaining binding at 0.001 µM: 81%
Protein kinases [2]; 10 nM
  remaining binding at 0.01 µM: 54%
Protein kinases [2]; 1000 nM
  remaining binding at 1 µM: 0.05%
Protein kinases [3]; 1 nM
  remaining binding at 0.001 µM: 56%
Protein kinases [3]; 10 nM
  remaining binding at 0.01 µM: 4.5%
Protein kinases [3]; 1000 nM
  remaining binding at 1 µM: 0.3%
Protein kinases [4]; 1 nM
  remaining binding at 0.001 µM: 65%
Protein kinases [4]; 10 nM
  remaining binding at 0.01 µM: 12%
Protein kinases [4]; 1000 nM
  remaining binding at 1 µM: 0.35%
Protein kinases [5]; 1 nM
  Test compound/solvent control (%): 64%
Protein kinases [5]; 10 nM
  Test compound/solvent control (%): 21%
Protein kinases [5]; 1000 nM
  Test compound/solvent control (%): 0.7%
Protein kinases [6]; EGFR(L747-E749del, A750P), 1 nM
  Test compound/solvent control (%): 92%
Protein kinases [6]; EGFR(L747-E749del, A750P), 10 nM
  Test compound/solvent control (%): 11%
Protein kinases [6]; EGFR(L747-E749del, A750P), 1000 nM
  Test compound/solvent control (%): 0%
Protein kinases [6]; EGFR(L747-S752del, P753S), 1 nM
  Test compound/solvent control (%): 67%
Protein kinases [6]; EGFR(L747-S752del, P753S), 10 nM
  Test compound/solvent control (%): 16%
Protein kinases [6]; EGFR(L747-S752del, P753S), 1000 nM
  Test compound/solvent control (%): 1.6%
Protein kinases [6]; EGFR(L747-T751del, Sins), 1 nM
  Test compound/solvent control (%): 68%
Protein kinases [6]; EGFR(L747-T751del, Sins), 10 nM
  Test compound/solvent control (%): 11%
Protein kinases [6]; EGFR(L747-T751del, Sins), 1000 nM
  Test compound/solvent control (%): 2.7%
Protein kinases [7]; 1 nM
  remaining binding at 0.001 µM: 100%
Protein kinases [7]; 10 nM
  remaining binding at 0.01 µM: 22%
Protein kinases [7]; 1000 nM
  remaining binding at 1 µM: 0.65%
Protein kinases [8]; 1 nM
  Test compound/solvent control (%): 83%
Protein kinases [8]; 10 nM
  Test compound/solvent control (%): 19%
Protein kinases [8]; 1000 nM
  Test compound/solvent control (%): 0.2%
Protein kinases [9]; ABL1(T315I)-phosphorylated
  remaining binding at 0.001 µM: 100%
  remaining binding at 0.01 µM: 34%
  remaining binding at 1 µM: 0.45%
Protein kinases [9]; ABL1(T315I)-unphosphorylated
  remaining binding at 0.001 µM: 96%
  remaining binding at 0.01 µM: 32%
  remaining binding at 1 µM: 0.15%
Protein kinases [10]; 1 nM
  remaining binding at 0.001 µM: 36%
Protein kinases [10]; 10 nM
  remaining binding at 0.01 µM: 1.4%
Protein kinases [10]; 1000 nM
  remaining binding at 1 µM: 0.1%
Protein kinases [11]; 1 nM
  remaining binding at 0.001 µM: 88%
Protein kinases [11]; 10 nM
  remaining binding at 0.01 µM: 34%
Protein kinases [11]; 1000 nM
  remaining binding at 1 µM: 0.15%
Protein kinases [12]; 1 nM
  remaining binding at 0.001 µM: 90%
Protein kinases [12]; 10 nM
  remaining binding at 0.01 µM: 27%
Protein kinases [12]; 1000 nM
  remaining binding at 1 µM: 0%
Protein kinases [13]; 1 nM
  remaining binding at 0.001 µM: 93%
Protein kinases [13]; 10 nM
  remaining binding at 0.01 µM: 74%
Protein kinases [13]; 1000 nM
  remaining binding at 1 µM: 0%
